According to patent publication US4549022A, “4-Pyridone-3-carboxylic acid derivatives” (Hoffmann-La Roche Inc., priority 1978, dated 1985):
≈ marks a conversion by molar mass, not a printed value. Like-named read-outs stand apart in the source and are kept apart here.

Assays:
Escherichia coli [1] = assay: Escherichia coli in vitro MIC (Minimum Inhibitory Concentration); type: cell-based
Escherichia coli [2] = assay: Escherichia coli in vivo (mouse) ED50
LD50 (acute toxicity) = type: in vivo
central nervous system = assay: Turning rat test (minimum active dosage); type: in vivo
[3] = vs d-amphetamine and d-methamphetamine, see Table 1

SMILES | MIC (Escherichia coli [1]; read-out: MIC) [µg/mL] | ED50 (Escherichia coli [2]; po, read-out: ED50) [mg/kg] | also measured
CCn1cc(C(=O)O)c(=O)cc1-c1ccc(SC)cc1 [1-ethyl-6-(4-methylthiophenyl)-4-oxo-1,4-dihydronicotinic acid] | 2.5 (≈ 8.64 µM) | 82 | –
CCn1cc(C(=O)O)c(=O)cc1-c1ccc(N(C)C)cc1 [1-ethyl-6-[4-(dimethylamino)-phenyl]-4-oxo-1,4-dihydronicotinic acid] | 0.6 (≈ 2.1 µM) | 8.8 | –
CCn1cc(C(=O)O)c(=O)cc1-c1ccc(-n2cccc2)cc1 [1-ethyl-6-(4-pyrrolophenyl)-4-oxo-1,4-dihydronicotinic acid] | – | – | MIC (Escherichia coli [1]): 1.2 µg/mL (≈ 3.89 µM); ED50 (Escherichia coli [2]; p.o.): 34 mg/kg
CCn1cc(C(=O)O)c(=O)cc1-c1ccccc1 [1-ethyl-4-oxo-6-phenyl-1,4-dihydronicotinic acid] | – | – | LD50 (LD50 (acute toxicity); in vivo, po): 300 to 600 mg/kg; LD50 compared with d-amphetamine and d-methamphetamine (LD50 (acute toxicity); [3]): substantially lower LD50; LD50 compared with nomifensin (LD50 (acute toxicity); vs nomifensin, see Table 1): about the same LD50; Turning rat test minimum active dosage (central nervous system; Arch. int. Pharmacodyn. Ther. 217, 118-130 (1975)): 1; activity compared with d-amphetamine and d-methamphetamine (central nervous system; [3]): about the same strong activity; activity compared with nomifensin (central nervous system; vs nomifensin, see Table 1): substantially superior activity to nomifensin
CCn1cc(C(=O)O)c(=O)cc1-c1ccc(OC)cc1 [1-ethyl-6-(4-methoxyphenyl)-4-oxo-1,4-dihydronicotinic acid] | 2.5 (≈ 9.15 µM) | > 100 | –
CCn1cc(C(=O)O)c(=O)cc1-c1ccc2c(c1)OCO2 [1-ethyl-6-(3,4-methylenedioxyphenyl)-4-oxo-1,4-dihydronicotinic acid] | 2.5 (≈ 8.7 µM) | > 100 | –
CCn1cc(C(=O)O)c(=O)cc1-c1ccc(NC)c(C)c1 [1-ethyl-6-(3-methyl-4-methylaminophenyl)-4-oxo-1,4-dihydronicotinic acid] | 0.6 (≈ 2.1 µM) | 3.5 | –
CCn1cc(C(=O)O)c(=O)cc1-c1ccc(N2CCCC2)cc1 [1-ethyl-6-(4-pyrrolidinophenyl)-4-oxo-1,4-dihydronicotinic acid] | 1.2 (≈ 3.84 µM) | 19 | –
O=C1CN(/N=C/c2ccc([N+](=O)[O-])o2)C(=O)N1 [Nitrofurantoin, reference compound] | 5 (≈ 21 µM) | > 100 | –
